{
  "source": "patent US20220273571A1",
  "about": "“COMPOSITIONS OF PROBIOTICS AND BIOMASS AND METHODS FOR PROMOTING HEALTH IN A SUBJECT” (Commonwealth Scientific and Industrial Research Organisation, priority 2019, published 2022)",
  "key": {"[1]": {"assay": "pH of formulations in fermentation media before pH adjustment", "type": "physicochemical", "details": "150 mg dried formulation in 10 mL fermentation media, before standardizing the starting pH at 6.8"}, "[2]": {"tested_on": "Coriobacteriaceae (Collinsella aerofaciens)", "assay": "In vitro colonic fermentation, 16S rRNA bacterial population analysis", "type": "cell-based", "details": "24 h fermented samples versus Time 0 samples"}, "[3]": {"tested_on": "Bacteroidaceae (Bacteroides)", "assay": "In vitro colonic fermentation, 16S rRNA bacterial population analysis", "type": "cell-based", "details": "24 h fermented samples versus Time 0 samples"}, "[4]": {"tested_on": "Porphyromonadaceae (Parabacteroides distasonis)", "assay": "In vitro colonic fermentation, 16S rRNA bacterial population analysis", "type": "cell-based", "details": "24 h fermented samples versus Time 0 samples"}, "[5]": {"tested_on": "Paraprevotellaceae (Paraprevotella)", "assay": "In vitro colonic fermentation, 16S rRNA bacterial population analysis", "type": "cell-based", "details": "24 h fermented samples versus Time 0 samples"}, "[6]": {"tested_on": "Bacillaceae (Bacillus coagulans)", "assay": "In vitro colonic fermentation, 16S rRNA bacterial population analysis", "type": "cell-based", "details": "24 h fermented samples versus Time 0 samples"}, "[7]": {"tested_on": "Lactobacillaceae (Lactobacillus reuteri)", "assay": "In vitro colonic fermentation, 16S rRNA bacterial population analysis", "type": "cell-based", "details": "24 h fermented samples versus Time 0 samples"}, "[8]": {"tested_on": "Clostridiaceae (Clostridium perfringens)", "type": "cell-based", "details": "24 h fermented samples versus Time 0 samples"}, "[9]": {"tested_on": "Lachnospiraceae (Blautia)", "assay": "In vitro colonic fermentation, 16S rRNA bacterial population analysis", "type": "cell-based", "details": "24 h fermented samples versus Time 0 samples"}, "[10]": {"tested_on": "Lachnospiraceae (Coprococcus)", "assay": "In vitro colonic fermentation, 16S rRNA bacterial population analysis", "type": "cell-based", "details": "24 h fermented samples versus Time 0 samples"}, "[11]": {"tested_on": "Lachnospiraceae (Dorea formicigenerans)", "assay": "In vitro colonic fermentation, 16S rRNA bacterial population analysis", "type": "cell-based", "details": "24 h fermented samples versus Time 0 samples"}, "[12]": {"tested_on": "Lachnospiraceae (Lachnospira)", "assay": "In vitro colonic fermentation, 16S rRNA bacterial population analysis", "type": "cell-based", "details": "24 h fermented samples versus Time 0 samples"}, "[13]": {"tested_on": "Lachnospiraceae (Roseburia faecis)", "assay": "In vitro colonic fermentation, 16S rRNA bacterial population analysis", "type": "cell-based", "details": "24 h fermented samples versus Time 0 samples"}, "Ruminococcaceae": {"tested_on": "Ruminococcaceae", "assay": "In vitro colonic fermentation, 16S rRNA bacterial population analysis", "type": "cell-based", "details": "24 h fermented samples versus Time 0 samples"}, "[14]": {"tested_on": "Ruminococcaceae (Faecalibacterium prausnitzii)", "assay": "In vitro colonic fermentation, 16S rRNA bacterial population analysis", "type": "cell-based", "details": "24 h fermented samples versus Time 0 samples"}, "[15]": {"tested_on": "Ruminococcaceae (Oscillospira)", "assay": "In vitro colonic fermentation, 16S rRNA bacterial population analysis", "type": "cell-based", "details": "24 h fermented samples versus Time 0 samples"}, "[16]": {"tested_on": "Ruminococcaceae (Ruminococcus)", "assay": "In vitro colonic fermentation, 16S rRNA bacterial population analysis", "type": "cell-based", "details": "24 h fermented samples versus Time 0 samples"}, "[17]": {"tested_on": "Veillonellaceae (Dialister)", "assay": "In vitro colonic fermentation, 16S rRNA bacterial population analysis", "type": "cell-based", "details": "24 h fermented samples versus Time 0 samples"}, "[18]": {"tested_on": "Veillonellaceae (Veillonella dispar)", "assay": "In vitro colonic fermentation, 16S rRNA bacterial population analysis", "type": "cell-based", "details": "24 h fermented samples versus Time 0 samples"}, "Erysipelotrichaceae": {"tested_on": "Erysipelotrichaceae", "assay": "In vitro colonic fermentation, 16S rRNA bacterial population analysis", "type": "cell-based", "details": "24 h fermented samples versus Time 0 samples"}, "[19]": {"tested_on": "Enterobacteriaceae (Trabulsiella)", "assay": "In vitro colonic fermentation, 16S rRNA bacterial population analysis", "type": "cell-based", "details": "24 h fermented samples versus Time 0 samples"}, "[20]": {"tested_on": "faecal slurries (gut microbiota)", "assay": "In vitro colonic batch fermentation, pH value", "details": "batch fermentation with faecal slurry, 37° C., starting pH adjusted"}, "[21]": {"tested_on": "faecal slurries (gut microbiota)", "assay": "In vitro colonic fermentation, SCFA analysis by gas chromatography", "details": "24 hrs fermentation, result in words (FIG. 2, FIG. 3)"}},
  "data": [
    {"smiles": "O=C(O[C@@H]1Cc2c(O)cc(O)cc2O[C@@H]1c1cc(O)c(O)c(O)c1)c1cc(O)c(O)c(O)c1", "note": "[EGCG, Epigallocatechin gallate]", "values": [
      {"measurement": "pH", "setting": "[1]", "value": 7.16},
      {"measurement": "Log2 fold change of percentage abundance, Coriobacteriaceae (Collinsella aerofaciens)", "setting": "[2]", "value": "−0.81", "unit": "Log2 fold change"},
      {"measurement": "Log2 fold change of percentage abundance, Bacteroidaceae (Bacteroides)", "setting": "[3]", "value": "−0.13", "unit": "Log2 fold change"},
      {"measurement": "Log2 fold change of percentage abundance, Porphyromonadaceae (Parabacteroides distasonis)", "setting": "[4]", "value": 0.27, "unit": "Log2 fold change"},
      {"measurement": "Log2 fold change of percentage abundance, Paraprevotellaceae (Paraprevotella)", "setting": "[5]", "value": 0.46, "unit": "Log2 fold change"},
      {"measurement": "Log2 fold change of percentage abundance, Bacillaceae (Bacillus coagulans)", "setting": "[6]", "value": "−1.94", "unit": "Log2 fold change"},
      {"measurement": "Log2 fold change of percentage abundance, Lactobacillaceae (Lactobacillus reuteri)", "setting": "[7]", "value": "−0.37", "unit": "Log2 fold change"},
      {"measurement": "Log2 fold change of percentage abundance, Clostridiaceae (Clostridium perfringens)", "setting": "[8]", "value": "−0.79", "unit": "Log2 fold change"},
      {"measurement": "Log2 fold change of percentage abundance, Lachnospiraceae (Blautia)", "setting": "[9]", "value": "−1.39", "unit": "Log2 fold change"},
      {"measurement": "Log2 fold change of percentage abundance, Lachnospiraceae (Coprococcus)", "setting": "[10]", "value": "−0.22", "unit": "Log2 fold change"},
      {"measurement": "Log2 fold change of percentage abundance, Lachnospiraceae (Dorea formicigenerans)", "setting": "[11]", "value": "−1.47", "unit": "Log2 fold change"},
      {"measurement": "Log2 fold change of percentage abundance, Lachnospiraceae (Lachnospira)", "setting": "[12]", "value": "−0.28", "unit": "Log2 fold change"},
      {"measurement": "Log2 fold change of percentage abundance, Lachnospiraceae (Roseburia faecis)", "setting": "[13]", "value": "−0.11", "unit": "Log2 fold change"},
      {"measurement": "Log2 fold change of percentage abundance, Ruminococcaceae", "setting": "Ruminococcaceae", "value": "−0.57", "unit": "Log2 fold change"},
      {"measurement": "Log2 fold change of percentage abundance, Ruminococcaceae (Faecalibacterium prausnitzii)", "setting": "[14]", "value": "−0.81", "unit": "Log2 fold change"},
      {"measurement": "Log2 fold change of percentage abundance, Ruminococcaceae (Oscillospira)", "setting": "[15]", "value": "−0.31", "unit": "Log2 fold change"},
      {"measurement": "Log2 fold change of percentage abundance, Ruminococcaceae (Ruminococcus)", "setting": "[16]", "value": "−1.35", "unit": "Log2 fold change"},
      {"measurement": "Log2 fold change of percentage abundance, Veillonellaceae (Dialister)", "setting": "[17]", "value": "−0.32", "unit": "Log2 fold change"},
      {"measurement": "Log2 fold change of percentage abundance, Veillonellaceae (Veillonella dispar)", "setting": "[18]", "value": "−0.58", "unit": "Log2 fold change"},
      {"measurement": "Log2 fold change of percentage abundance, Erysipelotrichaceae", "setting": "Erysipelotrichaceae", "value": "−1.30", "unit": "Log2 fold change"},
      {"measurement": "Log2 fold change of percentage abundance, Enterobacteriaceae (Trabulsiella)", "setting": "[19]", "value": 0.58, "unit": "Log2 fold change"},
      {"measurement": "pH at 24 hrs", "setting": "[20]", "value": "6.46 ± 0.05"},
      {"measurement": "total and individual SCFA production during fermentation", "setting": "[21]", "value": "significantly inhibited"}
    ]}
  ]
}
